What was measured:
Assay in all cases: 3' UTR reporter interaction score (median-centred robust z-score of log2 firefly/Renilla activity); higher = less repression of the 3' UTR reporter
Details in all cases: HEK293T; 48 h
ZEB2 = system: ZEB2
Outline: (§1)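 The interaction score is based on the log-transformed firefly/Renilla luciferase ratio, scaled as a robust z-score within each plate by median and median absolute deviation and median-centred for each miRNA; more negative scores indicate interaction. It was averaged over at least two independent screens. Readings were taken 48 h after HEK293T cells (10,000/well, 96-well plates) were co-transfected by DharmaFECT Duo with 100 ng firefly luc2P 3' UTR reporter, 20 ng Renilla pRL-TK and 2.5 pmol miRNA mimic.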

MYB = system: MYB
Outline: as §1

BRCA2 = system: BRCA2
Outline: as §1

PHF6 = system: PHF6
Outline: as §1

PHOX2B = system: PHOX2B
Outline: as §1

FBXW7 = system: FBXW7
Outline: as §1

MYC = system: MYC
Outline: as §1

TP53 = system: TP53
Outline: as §1

RB1 = system: RB1
Outline: as §1

HRAS = system: HRAS
Outline: as §1

EZH2 = system: EZH2
Outline: as §1

NOTCH1 = system: NOTCH1
Outline: as §1

MYT1L = system: MYT1L
Outline: as §1

MYCN = system: MYCN
Outline: as §1

| Sequence | 3' UTR reporter interaction score (ZEB2) | 3' UTR reporter interaction score (MYB) | 3' UTR reporter interaction score (BRCA2) | 3' UTR reporter interaction score (PHF6) | 3' UTR reporter interaction score (PHOX2B) | 3' UTR reporter interaction score (FBXW7) | 3' UTR reporter interaction score (MYC) | 3' UTR reporter interaction score (TP53) | 3' UTR reporter interaction score (RB1) | 3' UTR reporter interaction score (HRAS) | 3' UTR reporter interaction score (EZH2) | 3' UTR reporter interaction score (NOTCH1) | 3' UTR reporter interaction score (MYT1L) | 3' UTR reporter interaction score (MYCN) |
| --- | --- | --- | --- | --- | --- | --- | --- | --- | --- | --- | --- | --- | --- | --- |
| AACACACCUGGUUAACCUCUUU | 0.382 | -0.0237 | 0.0379 | -2.01 | 0.138 | -0.274 | -0.499 | 0.317 | -0.572 | 0.473 | 0.419 | -1.72 | 0.591 | 1.21 |
| AACAGGUGACUGGUUAGACAA | -0.428 | -0.0471 | -0.352 | -0.792 | 2.14 | 1.13 | -1.37 | -0.34 | -0.637 | 0.125 | 0.144 | 1.15 | -0.793 | -1.32 |
| AACAUUCAACCUGUCGGUGAGU | 1.39 | 1.08 | -1.56 | 0.226 | 0.334 | 0.747 | -0.157 | -0.761 | 0.216 | -0.974 | -0.0307 | 0.774 | 1.67 | -1.2 |
| AACAUUCAACGCUGUCGGUGAGU | -0.18 | 0.057 | 0.243 | -0.891 | -0.00434 | -0.842 | 0.478 | 0.784 | 0.404 | -0.301 | -0.146 | 0.193 | -0.0848 | -0.12 |
| AACAUUCAUUGUUGUCGGUGGGUU | 1.49 | 0.819 | -0.763 | 0.446 | 0.761 | 0.226 | -0.122 | -1.07 | 0.277 | -0.818 | -0.453 | 0.549 | 1.2 | -0.95 |
| AACCAGCACCCCAACUUUGGAC | 1.09 | -1.09 | -0.175 | -2.04 | -0.923 | -7.19 | 0.864 | 0.244 | -1.29 | 0.0381 | 1.33 | -0.388 | 0.0434 | 0.781 |
| AACCCGUAGAUCCGAACUUGUG | -1.13 | 0.491 | 0.951 | -0.96 | -4.05 | -0.349 | 0.114 | 1.86 | 0.915 | 0.79 | 0.142 | -0.555 | -0.266 | -0.886 |
| AACCCGUAGAUCCGAUCUUGUG | -0.0662 | 1.14 | 0.969 | -0.973 | -3.27 | -0.496 | 1.06 | -0.247 | -0.24 | 0.465 | -0.241 | 0.552 | -0.114 | 0.392 |
| AACGCACUUCCCUUUAGAGUGU | 0.153 | -0.0921 | 0.843 | -1.36 | -0.209 | 0.611 | -2.85 | -0.139 | 1.02 | -0.716 | 0.293 | 0.0977 | 1.01 | 0.243 |
| AACGCGCUUCCCUAUAGAGGG | -0.982 | -0.83 | 0.644 | 0.0798 | -0.021 | 0.0883 | -0.143 | 1.12 | 0.667 | -1.1 | 1.38 | 0.382 | -0.267 | -1.41 |
| AAGCAGCUGCCUCUGAGGC | 1.09 | -1.27 | -0.823 | 0.632 | 0.758 | -2.92 | 1.09 | 0.187 | 0.293 | -0.819 | -1.03 | -0.304 | -4.53 | 0.924 |
| AAGCCUGCCCGGCUCCUCGGG | 1.11 | 0.0778 | 0.422 | -0.0107 | 0.478 | 0.255 | 0.642 | -1.82 | -0.201 | 0.291 | -0.223 | -0.439 | -0.815 | -0.588 |
| AAGCUGCCAGUUGAAGAACUGU | 0.607 | 0.23 | -0.407 | -0.206 | 0.0996 | -0.354 | -0.252 | -0.365 | 0.935 | 0.475 | -0.11 | 1.36 | -1.31 | -0.291 |
| AAGGAGCUCACAGUCUAUUGAG | 1.75 | 1.45 | -1.14 | -0.478 | 0.65 | 0.924 | -0.238 | -1.32 | 0.838 | 0.291 | -0.897 | -1.13 | 0.551 | 1.38 |
| AAGUGCUGUCAUAGCUGAGGUC | 1.38 | -0.62 | 0.528 | 0.918 | -0.113 | 0.564 | 0.212 | 0.0875 | 1.65 | 0 | -0.608 | -0.478 | -0.819 | 1.22 |
| AAGUGCUUCCUUUUAGAGGGUU | 0.00821 | -0.72 | -0.82 | 1.07 | 0.633 | 0.635 | -0.869 | -1 | 1.62 | -0.113 | -1.25 | 0.466 | 0.457 | 0.896 |
| AAUAAUACAUGGUUGAUCUUU | -1.86 | 0.0772 | -0.146 | 1.16 | -0.121 | -0.364 | 0.609 | -0.77 | -0.0974 | -0.598 | 0.433 | -0.442 | -0.318 | -0.572 |
| AAUAUUAUACAGUCAACCUCU | 0.391 | -0.218 | -1.63 | -1.02 | 0.408 | 0.854 | 0.0661 | 0.359 | -1.29 | -0.762 | -0.324 | 3.57 | 0 | 1.48 |
| AAUCAUACACGGUUGACCUAUU | -1.95 | 0.393 | -0.246 | -0.4 | -0.199 | 0.544 | -0.182 | -0.0204 | -0.342 | -0.256 | 0.236 | -0.221 | 0.0899 | 0.277 |
